According to a melting point compilation (Tetko et al.; mined from patent text by program, amines drawn as free bases though some values may be those of a salt):

Row | melting point | Compound
1 | 129 to 131 °C | COC(=O)c1ccc(OCC2CC(=O)N(c3ccc(OCCO)cc3)C2)cc1 (centres undefined)
2 | 154 to 155 °C | CCC=NNC(=O)c1cc(OC)cc(Oc2cccc(C(F)(F)F)c2)n1
3 | 130 to 131 °C | CC(=O)c1c(C)sc2ccnn12
4 | 61 to 62 °C | CCOC(=O)CCc1ccc(CCNS(=O)(=O)c2ccc(Cl)cc2)cc1
5 | 72 °C | CCCC1(OCCO)CCNCC1
6 | 180 °C | CCCCCCCCc1cc2c(cc1/C=C/c1ccc(C(=O)O)cc1)CCC(C)(C)CC2
7 | 239 to 242 °C | CSc1nc(N)c([N+](=O)[O-])c(N2CCS(=O)CC2)n1
8 | 109 to 111 °C | CC1(C)CCC(C)(C)C(=O)C1=O
9 | 220 to 222 °C | Nc1ncc(-c2cccc(-n3cnc4cc(-c5ccco5)ccc43)c2)cn1
10 | 152 to 157 °C | c1ccc2c(c1)CCCC1C2=NNC1c1ccncc1 (centres undefined)
11 | 195 to 197 °C | O=C(Nc1cccc(-c2ncno2)c1)Oc1ccc([N+](=O)[O-])cc1
12 | 154 to 156 °C | CC(C)N1Cc2cc(N)ccc2N(CCCl)S1(=O)=O
13 | 175 to 176 °C | COc1cc(OC)nc(NC(=O)NS(=O)(=O)c2ccccc2-c2ccccn2)n1
14 | 205 to 206 °C | Nc1ccc(F)c2c1C(=O)c1ccccc1-2
15 | 263 to 265 °C | O=C(CN1c2ccccc2Cn2c1nc(-c1ccncn1)cc2=O)c1ccccc1
16 | > 300 °C | COc1ccc(OC(N)=O)cc1
17 | 84 to 85.5 °C | O=Cc1cc(Br)cnc1N1CCC(CO)C1 (centres undefined)
18 | 120 to 122 °C | COc1cc2[nH]ccc(=O)c2cc1OC
19 | 149 to 151 °C | O=C(NCC12CC3CC(CC(C3)C1)C2)c1ccccc1C(c1ccc(O)cc1)c1ccc(O)cc1
20 | 77 to 78 °C | CCCCCCCCCCCCC(=O)c1c[nH]c(C2(OC)OCCSSO2)c1 (centres undefined)
21 | 169 to 171 °C | Cc1cc(OCc2coc(/C=C/c3ccc(Cl)cc3)n2)ccc1CS(=O)CCc1ccnn1C (centres undefined)
22 | 100 to 106 °C | O=C(c1cccs1)c1cnn2c(-c3cccc(-c4ccc(CNCCN5CCOCC5)cc4)c3)ccnc12
23 | 125 to 128 °C | Oc1cccc(-c2ccccc2-c2nc(-c3ccccc3)c(-c3ccccc3)o2)c1
24 | 71 to 74 °C | COC(=O)C1CC(=O)N(c2ccc(C)cc2)C1 (centres undefined)
25 | 117 to 118 °C | N#CCCNC(=O)c1cccc(-c2cccc3oc(Cc4cccc(C(F)(F)F)c4)nc23)c1

Row | melting point | Compound
26 | 187 °C | CN(c1ccccc1)c1ccc(-c2nc(C#N)c(C#N)nc2C#N)cc1
27 | 177 to 178 °C | O=C(Nc1ccc(-n2nc(C(F)(F)F)cc2C(F)(F)F)cc1)C1CC=CCC1 (centres undefined)
28 | 372 to 375 °C | O=C(O)c1ccc2c(c1)C(=O)c1cc(C(=O)O)ccc1S2(=O)=O
29 | 157 to 158 °C | CC(C)(C)c1nn(-c2c(F)cc(Cl)c3nc(Cl)sc23)c(=O)o1
30 | 121 to 122 °C | CC1CCCC1(O)c1ccc(C#N)c2ccccc12 (centres undefined)
31 | 251 to 253 °C | COc1cc(/C=C/c2ccc(N)cc2)cc(OC)c1OC
32 | 151 to 153 °C | CC(C)Cc1ccc2scc(C(C)N(O)C(N)=O)c2c1 (centres undefined)
33 | 250 to 252 °C | CCOc1ccc2[nH]c3c(c2c1)C[C@@]1(C)C(=O)N(CCBr)C(=O)N1[C@@H]3c1cccc(O)c1 (racemic)
34 | 133 to 134 °C | COC(=O)c1sccc1NS(=O)(=O)c1nc2nc(C3CC3)cc(C)n2n1
35 | 136 to 137 °C | COc1ccccc1C(=O)COc1cccc(NC(=O)c2ccccn2)c1
36 | 206 to 208 °C | CC1(C)C(=O)Nc2ccc(-c3ccc(F)c(Cl)c3)cc21
37 | 228 to 229 °C | CC1CC(=O)NN=C1c1ccc(NC(=NC#N)NCc2ccccc2)cc1 (centres undefined)
38 | 202 to 204 °C | CCCC[C@]1(CC)CS(=O)(=O)c2cc(OC)c(Br)cc2[C@@H](c2ccccc2)N1O
39 | 205 to 208 °C | CCCC1C(=O)N(S(C)(=O)=O)C2CCN(S(C)(=O)=O)C12 (centres undefined)
40 | 127 to 130 °C | CC(C)(C)OC(=O)N1CCN(C2=Nc3ccccc3Sc3ccccc32)CC1
41 | 182 to 184 °C | O=C1NN=C(CCc2ccccc2)c2c[nH]c3cccc1c23
42 | 240 °C | O=c1[nH]c(N2CCOCC2)nc2c(N3CCCCCC3)nc(N3CCOCC3)cc12
43 | 231 °C | O=C(Nc1cccc(S(=O)(=O)NCCO)c1)c1cnn2c(C(F)F)cc(-c3ccc(C(F)(F)F)cc3)nc12
44 | 135 to 137 °C | O=C1CCCCC(c2ccccc2)N1 (centres undefined)
45 | 144 to 146 °C | CCNC(=O)Nc1ccc(C(O)(C(F)(F)F)C(F)(F)F)cc1C(=O)OCC
46 | 100 to 103 °C | COC(=O)CN(c1ccc(OC)cc1OC)S(N)(=O)=O
47 | 211 to 212 °C | O=C(CCl)Nc1ccc2c(c1NC(=O)c1ccco1)C(=O)c1ccccc1C2=O
48 | 219 to 220 °C | Cc1ccccc1-c1c(NC(=O)Nc2c(C)cccc2C(C)C)c(=O)oc2c(F)cc(F)cc12
49 | 110 to 112 °C | COC(=O)c1ccc2c(c1)CCC(CCN1CCC(c3ccccc3)CC1)C2=O (centres undefined)
50 | 209 to 211 °C | COC(=O)C=Cc1ccc(C(=O)Nc2ccncc2)cc1

Row | melting point | Compound
51 | 135 to 137 °C | CCNC(=O)c1c(I)cccc1[Si](C)(C)C
52 | 70 to 72 °C | CCC1Cc2cc(C(C)C(=O)O)ccc2O1 (centres undefined)
53 | 188 to 192 °C | CC[C@@]1(CC(=O)N[C@@H](C)c2ccccc2)CCCN2CCc3c([nH]c4ccccc34)[C@@H]21
54 | 159 to 160 °C | O=C(Cc1ccsc1)Nc1ncc(Cl)cc1Cl
55 | 139 to 140 °C | CCC(Cn1cncn1)(C(N)=O)c1ccc(Cl)cc1 (centres undefined)
56 | 90 to 91 °C | C1CCCCN2CCOCCOCCN(CCC1)CCOCCOCC2
57 | 216 to 217 °C | CN1CCN(c2cc3c(F)cccc3c(=O)[nH]2)CC1CO (centres undefined)
58 | 115 to 116 °C | CCSc1ccc(-c2coc3ccc(-c4nnc(C)o4)cc23)cc1F
59 | 188 to 190 °C | COc1cccc(-c2c[nH]c3ncnc(N)c23)c1
60 | 158 to 159 °C | O=C(O)c1snnc1C1CC1
61 | 103 to 104 °C | CCOC(=O)c1cn(-c2ccc(F)cc2)nc1C
62 | 103 to 104 °C | CN(N=C(Cl)c1c(Cl)cccc1Cl)S(=O)(=O)c1ccccc1
63 | 200 °C | CCCCCC(=O)n1c(N)nc2ccccc21
64 | 149 to 151 °C | COCCCn1cc(Br)c2c3c(c(-c4ccccc4Cl)cc21)C(=O)NC3=O
65 | 175 to 176 °C | C=CCC1(C(=O)OC)C(=O)Nc2ccccc2CC1c1ccc(OC)cc1 (centres undefined)
66 | 165 to 168 °C | Oc1c(C(Nc2ccc(F)cn2)c2ccccn2)ccc2cccnc12 (centres undefined)
67 | 291 to 292 °C | CNC(=O)c1cc2c(nc(C)n2C)c2c1CCC(c1ccccc1)O2 (centres undefined)
68 | 109 to 111 °C | CCCCc1nc(SC)c(C(=O)O)n1Cc1ccc(-c2ccccc2S(=O)(=O)NC(=O)NCCC)cc1
69 | 105 to 107 °C | O=C(Cl)N1CCC(Oc2cc(Cl)cc(Cl)c2)C1 (centres undefined)
70 | 114 to 115 °C | COC(=O)C1Oc2ccc(Cl)cc2C(C)(c2ccccc2)O1 (centres undefined)
71 | 260 to 262 °C | CC(C)c1nccn1Cc1ccc2c(c1)Cc1c(-c3ccsc3)n[nH]c1-2
72 | 139 to 140 °C | CN(CC(=O)O)C(=O)CCSC(=O)c1ccccc1
73 | 111 °C | CCC(=O)NCCC1CCc2c(OC)ccc3ccc(OC)c1c23 (centres undefined)
74 | 275 to 279 °C | FC(F)(F)c1cccc(Nc2ccccc2-c2n[nH]c(=S)[nH]2)c1
75 | 185 to 186 °C | CCCCc1nc(SCCF)c(C(=O)O)n1Cc1ccc(-c2ccccc2C(=O)O)cc1

Row | melting point | Compound
76 | 128 to 131 °C | O=Cc1ccc(OCCCC(=O)O)c(Cl)c1
77 | 123 to 124 °C | CSc1c[nH]c2cccc([N+](=O)[O-])c12
78 | 140 °C | CCCCc1oc2ccccc2c1C=NOCCCOc1ccc(C(=O)O)cc1-c1ccc(C(F)(F)F)cc1
79 | 222 to 224 °C | N#Cc1cnn2c(-c3cccc(F)c3)ccnc12
80 | 207 °C | O=c1ccc(-c2ccc(O)cc2)cn1Cc1ccc(Cl)cc1F
81 | 124 to 125 °C | Cc1ccc(S(=O)(=O)OCC2COc3cc(Cl)c(Cl)cc3O2)cc1 (centres undefined)
82 | 123 to 124 °C | CS(=O)c1ccc(Nc2ccn(-c3ccccc3)n2)cc1 (centres undefined)
83 | 282 °C | CC1(C)CCC(C)(C)c2cc3cc(-c4ccc(C(=O)O)cc4)ccc3cc21
84 | 43 to 44 °C | Cc1cncc(/C=C/c2cccc(F)c2)n1
85 | 148 to 150 °C | Oc1ccc2ccccc2c1C1NCCc2ccccc21 (centres undefined)
86 | 131 to 133 °C | Cc1cccc(-c2n[nH]cc2-c2ccc(F)c(-c3ccc(NC(=O)NN4CCOCC4)cc3)c2)n1
87 | 175 to 176 °C | O=C1c2ccccc2C(=O)N1[C@@H]1C[C@H](O)[C@@H](O)[C@H]1O (racemic)
88 | 62 to 62.5 °C | Cc1ccc2c(c1)CC(=O)c1cc(C)ccc1O2
89 | 78 to 80 °C | COc1cc(OC)c(Br)cc1O
90 | 152 to 154 °C | CC1=NN=C(c2ccc(NC=O)cc2)c2cc3c(cc2C1)OCO3
91 | 76 to 77 °C | COc1ccc2c(c1)N(C(C)=O)CCO2
92 | 161 to 162 °C | CCCCC1(O)c2cc(NC(=O)CC(C)(C)C)c(C)c(C)c2OC1(C)C (centres undefined)
93 | 72 to 73 °C | O=C(O)CCc1nc(-c2ccccc2)cs1
94 | 210 °C | Cn1cncc1C(O)(c1ccc(C#N)cc1)c1ccc2c(c1)c(-c1cccc(Cl)c1)cc(=O)n2C (centres undefined)
95 | 176 to 177 °C | Cc1nccn1Cc1cnn(-c2ccc(Cl)c(Cl)c2)c1
96 | 246 to 249 °C | O=C(CSc1ccccc1)Nc1c(Cl)ccc2nc(N3CC[C@@H](O)C3)ccc12
97 | 148 to 149 °C | Cn1c(C(F)(F)F)cc(=O)n(-c2ccc3snc(C(Cl)Cl)c3c2)c1=O
98 | 146 to 147 °C | COc1ccc(CC(=O)NC(NC(=NC#N)Nc2cccnc2OC)C(C)(C)C)cc1OC (centres undefined)
99 | 128 to 131 °C | Cc1ccc(C(=O)c2cccc3c2CCC3C(=O)O)cc1 (centres undefined)
100 | 175 °C | O=S1(=O)c2ccccc2C(c2ccccc2)N1CCN1CCC(Cc2c[nH]c3ccc(F)cc23)CC1 (centres undefined)

Row | Compound | melting point
101 | CCOC(=O)c1ncn2c1C(C)N=C(c1ccccn1)c1cc(Br)ccc1-2 (centres undefined) | 193 to 195 °C
102 | CCC1CC2CC(=O)OC3OC4(C)CCC(C1C)C23OO4 (single isomer, unassigned; (+)) | 155 to 157 °C
103 | CNC(=O)ON=C1SC(C)(C)N=C1C | 90 to 92 °C
104 | Cc1c(O)ccc2c1C(C)(C)CC2 | 92 to 93 °C
